Laboratory results from patent publication US4684664A, “Derivatives of β-(4-isocyano-1,2,3,4-diepoxycyclopentyl) acrylic acid” (Kureha Kagaku Kogyo Kabushiki Kaisha, priority 1984, dated 1987).
≈ marks a conversion by molar mass, not a printed value.

Legend:
Type in all cases: cell-based
[1] = tested on: Staphylococcus aureus FDA 209PJc-1; test: Antibacterial activity, agar-dilution MIC, organism No. 1; details: Staphylococcus aureus, FDA209PJC1; Organism No. 1, bouillon-agar; read-out: Minimum Inhibitory Concentration
Text: (§1) Agar-dilution method was used for determination of the antibacterial activity and antifungal activity while using bouillon-agar culture medium, and the minimum inhibitory concentration of the specimen was expressed by μg/ml of the culture medium.

[2] = tested on: Staphylococcus aureus Terajima; test: Antibacterial activity, agar-dilution MIC, organism No. 2; details: Staphylococcus aureus; Organism No. 2, bouillon-agar; read-out: Minimum Inhibitory Concentration
Text: as §1

[3] = tested on: Staphylococcus aureus MS 353; test: Antibacterial activity, agar-dilution MIC, organism No. 3; details: Staphylococcus aureus, MS353; Organism No. 3, bouillon-agar; read-out: Minimum Inhibitory Concentration
Text: as §1

[4] = tested on: Streptococcus pyogenes Cook; test: Antibacterial activity, agar-dilution MIC, organism No. 4; details: Streptococcus pyogenes; Organism No. 4, bouillon-agar; read-out: Minimum Inhibitory Concentration
Text: as §1

[5] = tested on: Escherichia coli NIHJ-JC-2; test: Antibacterial activity, agar-dilution MIC, organism No. 5; details: Escherichia coli, NIHJJC2; Organism No. 5, bouillon-agar; read-out: Minimum Inhibitory Concentration
Text: as §1

[6] = tested on: Escherichia coli K12 C600 IAM 1264; test: Antibacterial activity, agar-dilution MIC, organism No. 6; details: Escherichia coli, IAM1264; Organism No. 6, bouillon-agar; read-out: Minimum Inhibitory Concentration
Text: as §1

[7] = tested on: Klebsiella pneumoniae PCI-602; test: Antibacterial activity, agar-dilution MIC, organism No. 7; details: Klebsiella pneumoniae, PCI602; Organism No. 7, bouillon-agar; read-out: Minimum Inhibitory Concentration
Text: as §1

[8] = tested on: Salmonella typhimurium IID 971; test: Antibacterial activity, agar-dilution MIC, organism No. 8; details: Salmonella enterica; Organism No. 8, bouillon-agar; read-out: Minimum Inhibitory Concentration
Text: as §1

[9] = tested on: Salmonella typhi 901; test: Antibacterial activity, agar-dilution MIC, organism No. 9; details: Salmonella enterica, TYPHI, read-out: Minimum Inhibitory Concentration
Text: as §1

[10] = tested on: Salmonella paratyphi-A 1015; test: Antibacterial activity, agar-dilution MIC, organism No. 10; details: Salmonella enterica, PARATYPHI, read-out: Minimum Inhibitory Concentration
Text: as §1

[11] = tested on: Salmonella shottmuelleri 8006; test: Antibacterial activity, agar-dilution MIC, organism No. 11; details: Salmonella, 8006; Organism No. 11, bouillon-agar; read-out: Minimum Inhibitory Concentration
Text: as §1

[12] = tested on: Salmonella enteritidis G 14; test: Antibacterial activity, agar-dilution MIC, organism No. 12; details: Salmonella enterica, ENTERITIDIS; Organism No. 12, bouillon-agar; read-out: Minimum Inhibitory Concentration
Text: as §1

[13] = tested on: Bacillus subtilis ATCC 6633; test: Antibacterial activity, agar-dilution MIC, organism No. 14; details: Bacillus subtilis, ATCC6633; Organism No. 14, bouillon-agar; read-out: Minimum Inhibitory Concentration
Text: as §1

[14] = tested on: Pseudomonas aeruginosa IFO 3445; test: Antibacterial activity, agar-dilution MIC, organism No. 15; details: Pseudomonas aeruginosa, IFO3445; Organism No. 15, bouillon-agar; read-out: Minimum Inhibitory Concentration
Text: as §1

[15] = tested on: Pseudomonas aeruginosa NCTC 10490; test: Antibacterial activity, agar-dilution MIC, organism No. 16; details: Pseudomonas aeruginosa, NCTC10490; Organism No. 16, bouillon-agar; read-out: Minimum Inhibitory Concentration
Text: as §1

[16] = tested on: Pseudomonas aeruginosa PAO 1; test: Antibacterial activity, agar-dilution MIC, organism No. 17; details: Pseudomonas aeruginosa, PAO1; Organism No. 17, bouillon-agar; read-out: Minimum Inhibitory Concentration
Text: as §1

[17] = tested on: Proteus morganii IFO 3848; test: Antibacterial activity, agar-dilution MIC, organism No. 18; details: Morganella morganii, IFO3848; Organism No. 18, bouillon-agar; read-out: Minimum Inhibitory Concentration
Text: as §1

[18] = tested on: Proteus mirabilis IFO 3849; test: Antibacterial activity, agar-dilution MIC, organism No. 19; details: Proteus mirabilis, IFO3849; Organism No. 19, bouillon-agar; read-out: Minimum Inhibitory Concentration
Text: as §1

[19] = tested on: Proteus vulgaris OX-19; test: Antibacterial activity, agar-dilution MIC, organism No. 20; details: Proteus vulgaris, OX19; Organism No. 20, bouillon-agar; read-out: Minimum Inhibitory Concentration
Text: as §1

[20] = tested on: Proteus vulgaris HX-19; test: Antibacterial activity, agar-dilution MIC, organism No. 21; details: Proteus vulgaris, HX19; Organism No. 21, bouillon-agar; read-out: Minimum Inhibitory Concentration
Text: as §1

[21] = tested on: Proteus rettgeri IFO 3850; test: Antibacterial activity, agar-dilution MIC, organism No. 22; details: Providencia rettgeri, IFO3850; Organism No. 22, bouillon-agar; read-out: Minimum Inhibitory Concentration
Text: as §1

[22] = tested on: Enterobacter aerogenes ATCC 13048; test: Antibacterial activity, agar-dilution MIC, organism No. 23; details: Klebsiella aerogenes, ATCC13048; Organism No. 23, bouillon-agar; read-out: Minimum Inhibitory Concentration
Text: as §1

[23] = tested on: Enterobacter cloacae 963; test: Antibacterial activity, agar-dilution MIC, organism No. 24; details: Enterobacter cloacae, 963; Organism No. 24, bouillon-agar; read-out: Minimum Inhibitory Concentration
Text: as §1

[24] = tested on: Micrococcus luteus ATCC 9341; test: Antibacterial activity, agar-dilution MIC, organism No. 25; details: Micrococcus luteus, ATCC9341; Organism No. 25, bouillon-agar; read-out: Minimum Inhibitory Concentration
Text: as §1

[25] = tested on: Streptococcus pyogenes IFO 3340; test: Antibacterial activity, agar-dilution MIC, organism No. 26; details: Streptococcus pyogenes, IFO3340; Organism No. 26, bouillon-agar; read-out: Minimum Inhibitory Concentration
Text: as §1

[26] = tested on: Streptococcus faecium IFO 3826; test: Antibacterial activity, agar-dilution MIC, organism No. 27; details: Enterococcus faecium, IFO3826; Organism No. 27, bouillon-agar; read-out: Minimum Inhibitory Concentration
Text: as §1

[27] = tested on: Mycoplasma pneumoniae IID817; test: Antimycoplasmal activity, MIC by phenol red colour change, organism No. 28; details: Mycoplasma, IID817; Organism No. 28, PPLO broth + 1% glucose, 37° C.; read-out: Minimum Inhibitory Concentration (MIC)
Protocol: Mycoplasma pneumoniae IID817 was used as the test microorganism in a culture medium prepared by adding 1% of glucose to "PPLO broth (manufactured by Difco Co.) liquid culture medium" at 37° C. with phenol red as an indicator, thereby culturing the test microorganism.

[28] = tested on: Candida albicans IAM 4905; test: Antifungal activity, agar-dilution MIC, organism No. 29; details: Candida albicans, IAM4905; Organism No. 29, bouillon-agar; read-out: Minimum Inhibitory Concentration
Text: as §1

[29] = tested on: Aspergillus niger IFO 6342; test: Antifungal activity, agar-dilution MIC, organism No. 30; details: Aspergillus niger, IFO6342; Organism No. 30, bouillon-agar; read-out: Minimum Inhibitory Concentration
Text: as §1

| Compound | MIC [1] [µg/mL] | MIC [2] [µg/mL] | MIC [3] [µg/mL] | MIC [4] [µg/mL] | MIC [5] [µg/mL] | MIC [6] [µg/mL] | MIC [7] [µg/mL] | MIC [8] [µg/mL] | MIC [9] [µg/mL] | MIC [10] [µg/mL] | MIC [11] [µg/mL] | MIC [12] [µg/mL] | MIC [13] [µg/mL] | MIC [14] [µg/mL] | MIC [15] [µg/mL] | MIC [16] [µg/mL] | MIC [17] [µg/mL] | MIC [18] [µg/mL] | MIC [19] [µg/mL] | MIC [20] [µg/mL] | also measured |
| --- | --- | --- | --- | --- | --- | --- | --- | --- | --- | --- | --- | --- | --- | --- | --- | --- | --- | --- | --- | --- | --- |
| [C-]#[N+]C12CC3(/C=C/C(=O)Nc4ccc(Br)cc4)OC3C1O2 (stereo not drawn) [compound 44] | 0.39 (≈ 1.12 µM) | 3.13 (≈ 9.02 µM) | 0.39 (≈ 1.12 µM) | > 200 | > 200 | > 200 | 0.2 (≈ 0.576 µM) | 50 (≈ 144 µM) | 12.5 (≈ 36 µM) | 3.13 (≈ 9.02 µM) | 3.13 (≈ 9.02 µM) | 50 (≈ 144 µM) | 25 (≈ 72 µM) | > 200 | > 200 | > 200 | 3.13 (≈ 9.02 µM) | > 200 | 6.25 (≈ 18 µM) | 0.1 (≈ 0.288 µM) | MIC [21]: 100 µg/mL (≈ 288 µM); MIC [22]: > 200 µg/mL; MIC [23]: > 200 µg/mL; MIC [24]: < 0.05 µg/mL; MIC [25]: 12.5 µg/mL (≈ 36 µM); MIC [26]: 200 µg/mL (≈ 576 µM); MIC [27]: < 0.2 µg/mL; MIC [28]: 0.39 µg/mL (≈ 1.12 µM); MIC [29]: 1.56 µg/mL (≈ 4.49 µM) |
| [C-]#[N+]C12CC3(/C=C/C(=O)Nc4ccc(Cl)cc4)OC3C1O2 (stereo not drawn) [compound 40] | < 0.05 | 0.1 (≈ 0.33 µM) | < 0.05 | 200 (≈ 661 µM) | > 200 | > 200 | < 0.05 | 12.5 (≈ 41.3 µM) | 0.39 (≈ 1.29 µM) | 0.1 (≈ 0.33 µM) | 0.1 (≈ 0.33 µM) | 3.13 (≈ 10.3 µM) | 6.25 (≈ 20.6 µM) | > 200 | > 200 | > 200 | 3.13 (≈ 10.3 µM) | > 200 | 0.1 (≈ 0.33 µM) | < 0.05 | MIC [21]: 6.25 µg/mL (≈ 20.6 µM); MIC [22]: > 200 µg/mL; MIC [23]: 200 µg/mL (≈ 661 µM); MIC [24]: < 0.05 µg/mL; MIC [25]: 0.39 µg/mL (≈ 1.29 µM); MIC [26]: > 200 µg/mL; MIC [27]: < 0.2 µg/mL; MIC [28]: 0.39 µg/mL (≈ 1.29 µM); MIC [29]: 1.56 µg/mL (≈ 5.15 µM) |
| [C-]#[N+]C12CC3(/C=C/C(=O)Nc4ccccc4Cl)OC3C1O2 (stereo not drawn) [compound 42] | 0.39 (≈ 1.29 µM) | 1.56 (≈ 5.15 µM) | 0.39 (≈ 1.29 µM) | > 200 | > 200 | > 200 | 0.78 (≈ 2.58 µM) | 25 (≈ 82.6 µM) | 12.5 (≈ 41.3 µM) | 6.25 (≈ 20.6 µM) | 3.13 (≈ 10.3 µM) | 25 (≈ 82.6 µM) | 6.25 (≈ 20.6 µM) | > 200 | > 200 | > 200 | 3.13 (≈ 10.3 µM) | > 200 | 3.13 (≈ 10.3 µM) | 0.1 (≈ 0.33 µM) | MIC [21]: > 200 µg/mL; MIC [22]: > 200 µg/mL; MIC [23]: > 200 µg/mL; MIC [24]: < 0.05 µg/mL; MIC [25]: 1.56 µg/mL (≈ 5.15 µM); MIC [26]: 25 µg/mL (≈ 82.6 µM); MIC [27]: < 0.2 µg/mL; MIC [28]: 1.56 µg/mL (≈ 5.15 µM); MIC [29]: 3.13 µg/mL (≈ 10.3 µM) |
